ChEMBL document CHEMBL3804786, “Novel 1,3-thiazolidin-4-one derivatives as promising anti-Candida agents endowed with anti-oxidant and chelating properties” (Eur J Med Chem, 2016)
In brackets after ≈: the same amount, converted by molar mass.

Legend:
Candida albicans = assay: Antifungal activity against Candida albicans clinical isolate after 24 hrs by broth microdilution method; type: functional
[1] = Antioxidant activity of the compound after 30 mins by CUPRAC method; type: physicochemical
Enterobacter sp. = assay: Antibacterial activity against Enterobacter spp. clinical isolate after 18 to 22 hrs by broth microdilution method; type: functional
Klebsiella oxytoca = assay: Antibacterial activity against Klebsiella oxytoca clinical isolate after 18 to 22 hrs by broth microdilution method; type: functional
Proteus mirabilis = assay: Antibacterial activity against Proteus mirabilis clinical isolate after 18 to 22 hrs by broth microdilution method; type: functional
[2] = Cytotoxicity against human Hep2 cells assessed as cell survival at 50 ug/ml after 24 hrs by trypan blue exclusion assay; type: cell-based, HEp-2; conditions: read-out: Survival
[3] = Cytotoxicity against human Hep2 cells assessed as cell survival at 10 ug/ml after 24 hrs by trypan blue exclusion assay; type: cell-based, HEp-2; conditions: read-out: Survival
[4] = Cytotoxicity against human Hep2 cells assessed as reduction in cell viability after 24 hrs by trypan blue exclusion assay; type: cell-based, HEp-2
Escherichia coli = assay: Antibacterial activity against Escherichia coli after clinical isolate 18 to 22 hrs by broth microdilution method; type: functional
[5] = Antioxidant activity assessed as DPPH radical scavenging activity after 30 mins under dark conditions; type: physicochemical
[6] = Antioxidant activity of the compound after 30 mins by FRAP assay; type: physicochemical
[7] = Cytotoxicity against human Hep2 cells assessed as cell survival at 0.5 ug/ml after 24 hrs by trypan blue exclusion assay; type: cell-based, HEp-2; conditions: read-out: Survival
[8] = Metal chelating activity of the compound assessed as ferrous ion complex formation after 10 mins; type: physicochemical
Nakaseomyces glabratus = assay: Antifungal activity against Candida glabrata clinical isolate after 24 hrs by broth microdilution method; type: functional
[9] = system: Streptococcus sp. (viridans group); assay: Antibacterial activity against Streptococcus alpha-hemolyticus clinical isolate after 18 to 22 hrs by broth microdilution method
[10] = Cytotoxicity against human Hep2 cells assessed as cell survival at 0.05 ug/ml after 24 hrs by trypan blue exclusion assay; type: cell-based, HEp-2; conditions: read-out: Survival
[11] = Antioxidant activity assessed as ABTS radical scavenging activity after 30 mins under dark conditions; type: physicochemical
[12] = Antioxidant activity of the compound after 90 mins by phosphomolybdenum assay; type: physicochemical
Candida tropicalis = assay: Antifungal activity against Candida tropicalis clinical isolate after 24 hrs by broth microdilution method; type: functional
Candida parapsilosis = assay: Antifungal activity against Candida parapsilosis clinical isolate after 24 hrs by broth microdilution method; type: functional; conditions: Lodderomyces parapsilosis
Staphylococcus aureus = assay: Antibacterial activity against Staphylococcus aureus clinical isolate after 18 to 22 hrs by broth microdilution method; type: functional
Staphylococcus warneri = assay: Antibacterial activity against Staphylococcus warneri clinical isolate after 18 to 22 hrs by broth microdilution method; type: functional
Pichia kudriavzevii = assay: Antifungal activity against Candida krusei clinical isolate after 24 hrs by broth microdilution method; type: functional
[13] = Cytotoxicity against human Hep2 cells assessed as cell survival at 5 ug/ml after 24 hrs by trypan blue exclusion assay; type: cell-based, HEp-2; conditions: read-out: Survival
Enterococcus faecalis = assay: Antibacterial activity against Streptococcus faecalis clinical isolate after 18 to 22 hrs by broth microdilution method; type: functional
[Candida] sake = Antifungal activity against Candida sake clinical isolate after 24 hrs by broth microdilution method; type: functional; conditions: Fermentozyma sake

Row | SMILES | MIC (Candida albicans) [µg/mL] | EC50 [1] [mM] | MIC (Enterobacter sp.) [µg/mL] | MIC (Klebsiella oxytoca) [µg/mL] | MIC (Proteus mirabilis) [µg/mL] | viability at 24 h, 50 ug/ml [2] [%] | viability at 24 h, 10 ug/ml [3] [%] | CC50 at 24 h [4] [µg/mL] | MIC (Escherichia coli) [µg/mL] | IC50 [5] [mM] | EC50 [6] [mM] | viability at 24 h, 0.5 ug/ml [7] [%] | IC50 [8] [mM] | MIC (Nakaseomyces glabratus) [µg/mL] | MIC [9] [µg/mL] | viability at 24 h, 0.05 ug/ml [10] [%] | IC50 [11] [mM] | EC50 [12] [mM] | MIC (Candida tropicalis) [µg/mL] | MIC (Candida parapsilosis) [µg/mL] | further results
1 | O=C1CS/C(=N\N=C2CCCC2)N1Cc1ccccc1F | 2 (≈ 6.55 µM) | 2.37 | > 256 | > 256 | > 256 | 0 | 37 | 11 (≈ 36 µM) | > 256 | > 5 | 5.63 | 69 | > 5 | 2 (≈ 6.55 µM) | > 256 | 82 | 12.4 | 0.7 | 2 (≈ 6.55 µM) | 2 (≈ 6.55 µM) | MIC (Staphylococcus aureus): > 256 µg/mL; MIC (Staphylococcus warneri): > 256 µg/mL; MIC (Pichia kudriavzevii): 8 µg/mL (≈ 26.2 µM); viability at 24 h, 5 ug/ml [13]: 52%; MIC (Enterococcus faecalis): > 256 µg/mL; MIC ([Candida] sake): 2 µg/mL (≈ 6.55 µM)
2 | C/C(=N/N=C1\SCC(=O)N1Cc1ccccc1[N+](=O)[O-])c1cccs1 | 2 (≈ 5.34 µM) | 2.25 | > 256 | > 256 | > 256 | 0 | 61 | 20 (≈ 53.4 µM) | > 256 | > 5 | 2.4 | 84 | > 5 | 2 (≈ 5.34 µM) | > 256 | 88 | 18.1 | 1.12 | 4 (≈ 10.7 µM) | 8 (≈ 21.4 µM) | MIC (Staphylococcus aureus): > 256 µg/mL; MIC (Staphylococcus warneri): > 256 µg/mL; MIC (Pichia kudriavzevii): 2 µg/mL (≈ 5.34 µM); viability at 24 h, 5 ug/ml [13]: 74%; MIC (Enterococcus faecalis): > 256 µg/mL; MIC ([Candida] sake): 2 µg/mL (≈ 5.34 µM)
3 | CC(C)=N/N=C1\SCC(=O)N1Cc1cccc([N+](=O)[O-])c1 | 2 (≈ 6.53 µM) | 2.35 | > 256 | > 256 | > 256 | 0 | 0 | 5 (≈ 16.3 µM) | > 256 | > 5 | 5.29 | 68 | > 5 | 2 (≈ 6.53 µM) | > 256 | 79 | 19.4 | 1.24 | 2 (≈ 6.53 µM) | 16 (≈ 52.2 µM) | MIC (Staphylococcus aureus): > 256 µg/mL; MIC (Staphylococcus warneri): > 256 µg/mL; MIC (Pichia kudriavzevii): 2 µg/mL (≈ 6.53 µM); viability at 24 h, 5 ug/ml [13]: 51%; MIC (Enterococcus faecalis): > 256 µg/mL; MIC ([Candida] sake): 2 µg/mL (≈ 6.53 µM)
4 | C/C(=N\N=C1/SCC(=O)N1Cc1ccccc1F)c1cccs1 | 2 (≈ 5.76 µM) | 2.4 | > 256 | > 256 | > 256 | 0 | 41 | 15 (≈ 43.2 µM) | > 256 | > 5 | 2.13 | 80 | 3.84 | 4 (≈ 11.5 µM) | > 256 | 91 | 15.7 | 1.26 | 2 (≈ 5.76 µM) | 4 (≈ 11.5 µM) | MIC (Staphylococcus aureus): > 256 µg/mL; MIC (Staphylococcus warneri): > 256 µg/mL; MIC (Pichia kudriavzevii): 4 µg/mL (≈ 11.5 µM); viability at 24 h, 5 ug/ml [13]: 62%; MIC (Enterococcus faecalis): > 256 µg/mL; MIC ([Candida] sake): 2 µg/mL (≈ 5.76 µM)
5 | O=C1CS/C(=N\N=C2CCCC2)N1Cc1ccc(Cl)cc1 | 2 (≈ 6.21 µM) | 2.1 | > 256 | > 256 | > 256 | 0 | 47 | 16 (≈ 49.7 µM) | > 256 | > 5 | 4.8 | 83 | > 5 | 2 (≈ 6.21 µM) | > 256 | 89 | 18.3 | 0.56 | 2 (≈ 6.21 µM) | 2 (≈ 6.21 µM) | MIC (Staphylococcus aureus): > 256 µg/mL; MIC (Staphylococcus warneri): > 256 µg/mL; MIC (Pichia kudriavzevii): 8 µg/mL (≈ 24.9 µM); viability at 24 h, 5 ug/ml [13]: 59%; MIC (Enterococcus faecalis): > 256 µg/mL; MIC ([Candida] sake): 4 µg/mL (≈ 12.4 µM)
6 | C/C(=N\N=C1/SCC(=O)N1Cc1cccc(F)c1)c1cccs1 | 2 (≈ 5.76 µM) | 2.55 | > 256 | > 256 | > 256 | 0 | 0 | 6 (≈ 17.3 µM) | > 256 | > 5 | 2.62 | 68 | 4.64 | 8 (≈ 23 µM) | > 256 | 80 | 21.1 | 1.36 | 2 (≈ 5.76 µM) | 2 (≈ 5.76 µM) | MIC (Staphylococcus aureus): > 256 µg/mL; MIC (Staphylococcus warneri): > 256 µg/mL; MIC (Pichia kudriavzevii): 2 µg/mL (≈ 5.76 µM); viability at 24 h, 5 ug/ml [13]: 42%; MIC (Enterococcus faecalis): > 256 µg/mL; MIC ([Candida] sake): 2 µg/mL (≈ 5.76 µM)
